Drawing on patent US20120004228A1, “Bis Aromatic Compounds for Use as LTC4 Synthase Inhibitors” (BIOLIPOX AB, priority 2009, published 2012), this text covers inhibition and IC50 for 32 molecules.

For the first experiment, the target named is T1, Recombinant human LTC4 synthase (Homo sapiens, UniProt Q16873).
T1 construct: made in house; host or cells: Pichia pastoris ('Piccia pastoralis' [sic])
T1 sequence (Q16873 1-150): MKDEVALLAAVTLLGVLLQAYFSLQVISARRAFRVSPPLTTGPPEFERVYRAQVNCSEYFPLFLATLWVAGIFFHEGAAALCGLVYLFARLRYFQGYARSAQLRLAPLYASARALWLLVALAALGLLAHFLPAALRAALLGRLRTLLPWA
The experiment in a line: In vitro LTC4 synthase assay (LTA4 to LTC4, HTRF detection). Type of experiment: biochemical.
Conditions: not given
(In general: Time-resolved FRET reads energy transfer from a long-lived donor to a nearby acceptor.)
A word on the inhibition: it is the drop in the measured response relative to a control, in per cent. Consider `CN(c1ccc(Cl)cc1)c1ccc(C(=O)c2cc(NC(=O)c3ccc(Cl)cc3Cl)cc(C(=O)O)c2)cc1` [Example 1:1, 3-{4-[(4-Chlorophenyl)(methyl)amino]benzoyl}-5-(2,4-dichlorobenzamido)benzoic acid], for which the inhibition at 1 µM came to 95%.

Another experiment addresses T1, Recombinant human LTC4 synthase. The description is as above. Type of experiment: biochemical.
Conditions: not given
The source holds these as a separate data set.
For orientation: IC50 means the concentration that inhibits the measured activity by half. As to `CN(c1ccc(Cl)cc1)c1ccc(C(=O)c2cc(NC(=O)c3ccc(Cl)cc3Cl)cc(C(=O)O)c2)cc1` [Example 1:1, 3-{4-[(4-Chlorophenyl)(methyl)amino]benzoyl}-5-(2,4-dichlorobenzamido)benzoic acid], the half-inhibitory concentration (IC50) came to 166 nM.
Consider `CN(c1ccc(Cl)cc1)c1ccc(C(=O)c2cc(Nc3ccc(Cl)cc3)cc(C(=O)O)c2)cc1` [Example 10:2, 3-{4-[(4-Chlorophenyl)(methyl)amino]benzoyl}-5-(4-chlorophenylamino)-benzoic acid], for which the IC50 amounted to 64 nM.
Take `COc1cccc(COc2cc(C(=O)O)cc(C(=O)c3ccc(N(C)c4ccc(Cl)cc4)cn3)c2)c1` [11:3, 3-{5-[(4-Chlorophenyl)(methyl)amino]picolinoyl}-5-(3-methoxybenzyloxy)-benzoic acid]: the half-maximal inhibitory concentration (IC50) is 250 nM.
In the case of `CN(c1ccc(Cl)cc1)c1ccc(C(=O)c2cc(Nc3cc(F)ccc3F)cc(C(=O)O)c2)cc1` [10:5, 3-{4-[(4-Chlorophenyl)(methyl)amino]benzoyl}-5-(2,5-difluorophenylamino)-benzoic acid], the IC50 worked out at 210 nM.
Take `COc1cccc(Nc2cc(C(=O)O)cc(C(=O)c3ccc(N(C)c4ccc(Cl)cc4)cn3)c2)c1` [9:31, 3-{5-[(4-Chlorophenyl)(methyl)amino]picolinoyl}-5-(3-methoxyphenylamino)-benzoic acid]: the IC50 was found to be 525 nM.
Turning to `CN(c1ccc(Cl)cc1)c1ccc(C(=O)c2cc(NC(=O)c3cccc(Cl)c3)cc(C(=O)O)c2)nc1` [2:9, 3-(3-Chlorobenzamido)-5-{5-[(4-chlorophenyl)(methyl)amino]picolinoyl}benzoic acid], the IC50 is 276 nM.
Same read-out and setting: then `COc1cccc(Oc2cc(C(=O)O)cc(C(=O)c3ccc(N(C)c4ccc(Cl)cc4)cc3)c2)c1` [8:14, 3-{4-[(4-Chlorophenyl)(methyl)amino]benzoyl}-5-(3-methoxyphenoxy)benzoic acid], with 143 nM; and `CN(c1ccc(Cl)cc1)c1ccc(C(=O)c2ccc(NS(=O)(=O)c3ccc(OC(F)(F)F)cc3)cc2)c(C(=O)O)c1` [Example 5, 5-[(4-Chlorophenyl)(methyl)amino]-2-[4-(4-trifluoromethoxybenzenesulfonamido)-benzoyl]benzoic acid], with 549 nM.
For `CN(c1ccc(Cl)cc1)c1ccc(C(=O)c2cc(Nc3ccc4c(c3)OCO4)cc(C(=O)O)c2)nc1` [9:29, 3-{5-[(4-Chlorophenyl)(methyl)amino]picolinoyl}-5-(3,4-methylenedioxy-phenylamino)benzoic acid], the IC50 was determined as 420 nM.
Consider `Cc1ccc(Oc2cc(C(=O)O)cc(C(=O)c3ccc(N(C)c4ccc(Cl)cc4)cn3)c2)cc1` [8:6, 3-{5-[(4-Chlorophenyl)(methyl)amino]picolinoyl}-5-(p-tolyloxy)benzoic acid], for which the 50% inhibitory concentration (IC50) turned out to be 120 nM.
For the molecule `CN(c1ccc(Cl)cc1)c1ccc(C(=O)c2cc(C(=O)O)cc(N(C)c3ccccc3F)c2)cc1` [10:24, 3-{4-[(4-Chlorophenyl)(methyl)amino]benzoyl}-5-[(2-fluorophenyl)(methyl)-amino]benzoic acid], the IC50 worked out at 40 nM.
For `CN(c1ccc(Cl)cc1)c1ccc(C(=O)c2cc(C(=O)O)cc(N3CCCCC3)c2)nc1` [9:37, 3-{5-[(4-Chlorophenyl)(methyl)amino]picolinoyl}-5-(1-piperidinyl)benzoic acid], the IC50 worked out at 506 nM.
`CN(c1ccc(Cl)cc1)c1ccc(C(=O)c2cc(C(=O)O)cc(-c3ccc(Cl)cc3)c2)nc1` [12:2, 4′-Chloro-5-{5-[(4-chlorophenyl)(methyl)amino]picolinoyl}biphenyl-3-carboxylic acid]: the IC50 was found to be 445 nM.
The same measure, in the same setting: then `CN(c1ccc(Cl)cc1)c1ccc(C(=O)c2cc(Nc3ccccc3)cc(C(=O)O)c2)nc1` [9:11, 3-{5-[(4-Chlorophenyl)(methyl)amino]picolinoyl}-5-(phenylamino)benzoic acid], with 61 nM; and `C=CCCC(=O)N(c1ccccc1)c1cc(C(=O)O)cc(C(=O)c2ccc(N(C)c3ccc(Cl)cc3)cc2)c1` [10:32, 3-{4-[(4-Chlorophenyl)(methyl)amino]benzoyl}-5-[(N-phenyl)pent-4-enamido]-benzoic acid], with 662 nM.
Consider `CN(c1ccc(Cl)cc1)c1ccc(C(=O)c2cc(OCc3cccc(F)c3)cc(C(=O)O)c2)nc1` [11:4, 3-{5-[(4-Chlorophenyl)(methyl)amino]picolinoyl}-5-(3-fluorobenzyloxy)benzoic acid], for which the IC50 was 454 nM.
Take `Cc1ccccc1Oc1cc(C(=O)O)cc(C(=O)c2ccc(N(C)c3ccc(Cl)cc3)cc2)c1` [8:17, 3-{4-[(4-Chlorophenyl)(methyl)amino]benzoyl}-5-(o-tolyloxy)benzoic acid]: the half-inhibitory concentration (IC50) came to 198 nM.
Regarding `CN(c1ccc(Cl)cc1)c1ccc(C(=O)c2cc(Oc3cccc(Cl)c3)cc(C(=O)O)c2)cc1` [8:20, 3-(3-Chlorophenoxy)-5-{4-[(4-chlorophenyl)(methyl)amino]benzoyl}benzoic acid], the IC50 is 87 nM.
As to `COc1ccc(NC(=O)c2cc(C(=O)O)cc(C(=O)c3ccc(N(C)c4ccc(Cl)cc4)cn3)c2)cc1` [2:6, 3-{5-[(4-Chlorophenyl)(methyl)amino]picolinoyl}-5-(4-methoxyphenyl-carbamoyl)benzoic acid], the IC50 turned out to be 744 nM.
Same read-out and setting: then `CN(c1ccc(Cl)cc1)c1ccc(C(=O)c2cc(C(=O)O)cc(N(CC3CCCCO3)c3ccccc3)c2)cc1` (stereo not shown) [10:36, 3-{4-[(4-Chlorophenyl)(methyl)amino]benzoyl}-5-{pheny[(tetrahydropyran-2-yl)methyl]amino}benzoic acid], with 25 nM.
The same measure, in the same setting: then `COc1ccc(Nc2cc(C(=O)O)cc(C(=O)c3ccc(N(C)c4ccc(Cl)cc4)cc3)c2)cc1OC` [10:7, 3-{4-[(4-Chlorophenyl)(methyl)amino]benzoyl}-5-(3,4-dimethoxyphenyl-amino)benzoic acid], with 483 nM; and `CN(c1ccc(Cl)cc1)c1ccc(C(=O)c2cc(C(=O)O)cc(N(C)c3ccc(Cl)cc3Cl)c2)cc1` [10:13, 3-{4-[(4-Chlorophenyl)(methyl)amino]benzoyl}-5-[(2,4-dichlorophenyl)-(methyl)amino]benzoic acid], with 40 nM; and `CN(c1ccc(Cl)cc1)c1ccc(C(=O)c2cc(Oc3ccc(C(C)(C)C)cc3)cc(C(=O)O)c2)cc1` [8:16, 3-(4-tert-Butylphenoxy)-5-{4-[(4-chlorophenyl)(methyl)amino]benzoyl}benzoic acid], with 159 nM.
Still for that read-out and setting: then `CN(c1ccc(Cl)cc1)c1ccc(C(=O)c2cc(OCc3ccccc3)cc(C(=O)O)c2)nc1` [11:2, 3-Benzyloxy-5-{5-[(4-chlorophenyl)(methyl)amino]picolinoyl}benzoic acid], with 462 nM.
In the case of `CCN(c1ccccc1)c1cc(C(=O)O)cc(C(=O)c2ccc(N(C)c3ccc(Cl)cc3)cc2)c1` [10:19, 3-{4-[(4-Chlorophenyl)(methyl)amino]benzoyl}-5-[ethyl(phenyl)amino]benzoic acid], the 50% inhibitory concentration (IC50) was 33 nM.
For `CN(c1ccc(Cl)cc1)c1ccc(C(=O)c2cc(C(=O)O)cc(N(CC3(C)COC3)c3ccccc3)c2)nc1` [9:15, 3-{5-[(4-Chlorophenyl)(methyl)amino]picolinoyl}-5-{[(3-methyloxetan-3-yl)-methyl](phenyl)amino}benzoic acid], the IC50 amounted to 50 nM.
As to `CN(c1ccc(Cl)cc1)c1ccc(C(=O)c2cc(Nc3ccc(Cl)cc3)cc(C(=O)O)c2)nc1` [9:4, 3-{5-[(4-Chlorophenyl)(methyl)amino]picolinoyl}-5-(4-chlorophenylamino)-benzoic acid], the IC50 was 70 nM.
On to `CN(c1ccc(Cl)cc1)c1ccc(C(=O)c2cc(Sc3ccccc3)cc(C(=O)O)c2)nc1` [19:4, 3-{5-[(4-Chlorophenyl)(methyl)amino]picolinoyl}-5-phenylsulfanylbenzoic acid], for which the half-inhibitory concentration (IC50) came out at 211 nM.
For `CN(c1ccc(Cl)cc1)c1ccc(C(=O)c2cc(Oc3ccccc3)cc(C(=O)O)c2)nc1` [Example 8:1, 3-{5-[(4-Chlorophenyl)(methyl)aminol]picolinoyl}-5-phenoxybenzoic acid], the 50% inhibitory concentration (IC50) was found to be 67 nM.
Turning to `CN(c1ccc(Cl)cc1)c1ccc(C(=O)c2cc(Oc3ccc(F)c(F)c3)cc(C(=O)O)c2)cc1` [Example 8:9, 3-{4-[(4-Chlorophenyl)(methyl)amino]benzoyl}-5-(3,4-difluorophenoxy)benzoic acid], the half-inhibitory concentration (IC50) stood at 30 nM.
For `COc1ccccc1N(C)c1cc(C(=O)O)cc(C(=O)c2ccc(N(C)c3ccc(Cl)cc3)cn2)c1` [9:22, 3-{5-[(4-Chlorophenyl)(methyl)amino]picolinoyl}-5-[(2-methoxyphenyl)(methyl)-amino]benzoic acid], the IC50 turned out to be 366 nM.
Same read-out and setting: to `CCOCCN(c1ccccc1)c1cc(C(=O)O)cc(C(=O)c2ccc(N(C)c3ccc(Cl)cc3)cn2)c1` [9:47, 3-{5-[(4-Chlorophenyl)(methyl)amino]picolinoyl}-5-[(2-ethoxyethyl)(phenyl)-amino]benzoic acid] belongs 60 nM.

Still in this experiment, the particulars now being: 5 min; total concentration of title compound in the assay 10 μM.
For `CN(c1ccc(Cl)cc1)c1ccc(C(=O)c2ccc(NS(=O)(=O)c3ccc(OC(F)(F)F)cc3)cc2)c(C(=O)O)c1` [Example 5, 5-[(4-Chlorophenyl)(methyl)amino]-2-[4-(4-trifluoromethoxybenzenesulfonamido)-benzoyl]benzoic acid], the inhibition at 10 µM is 100%.
